Here are results for two molecules from patent publication US12599596B2, “Anti-tumor pharmaceutical composition based on immune checkpoint blockade and use thereof” (Shanghai Hui Tian Jin Ze Biotech Co., Ltd., priority 2023, dated 2026).

Counter-ions that a name gives are not always drawn.

Assay [1] concerns MC38 colorectal cancer cells. In words: MC38 subcutaneous tumor model in C57BL/6 mice, Embodiment 2. Format: in vivo. As to conditions: for Tumor volume: CBD 100 mg/kg, PAR 10 mg/kg, vitamin E 50 mg/kg, thymosin 2 mg/kg. The protocol: • 1. MC38 colorectal cancer cells were inoculated into 6-week-old female C57BL/6 mice (1×10^6 cells/mouse) to establish a subcutaneous tumor model. After the tumor volume reached 50 mm^3, the mice were grouped and administered according to the following pharmaceutical combinations: (1) control group (no administration), (2) anti-PD-1 ([…]/time) group, (3) anti-CTLA4 ([…]/time) group, (4) CBD (100 mg/kg) group, (5) CBD (100 mg/kg)+anti-CTLA4 ([…]/time) group, (6) PAR (10 mg/kg) group, (7) PAR (10 mg/kg)+anti-CTLA4 ([…]) group, (8) CBD (100 mg/kg)+PAR (10 mg/kg) group, (9) vitamin E(a-tocopherol) (50 mg/kg)+thymosin (2 mg/kg) group, (10) CBD (100 mg/kg)+vitamin E(α-tocopherol) (50 mg/kg)+thymosin (2 mg/kg) group, (11) PAR (10 mg/kg)+vitamin E(α-tocopherol) (50 mg/kg)+thymosin (2 mg/kg), (12) PAR (10 mg/kg)+CBD (100 mg/kg)+vitamin E(α-tocopherol) (50 mg/kg)+thymosin (2 mg/kg) group, (13) CBD (100 mg/kg)+vitamin E(α-tocopherol) (50 mg/kg)+thymosin (2 mg/kg)+anti-CTLA4 ([…]/time) group, (14) PAR (10 mg/kg)+vitamin E(α-tocopherol) (50 mg/kg)+thymosin (2 mg/kg)+anti-CTLA4 ([…]) group, and (15) CBD (100 mg/kg)+PAR (10 mg/kg)+vitamin E(α-tocopherol) (50 mg/kg)+thymosin (2 mg/kg)+anti-CTLA4 ([…]/time) group. The tumor weight and volume, and body weight of the mice were monitored once every 2 days. The tumor volume was calculated as follows: tumor volume (mm^3)=0.5×(length)x(width)^2. The mice were sacrificed 14 days after drug administration, and the tumors were dissected.
The dissolving mode of the pharmaceutical composition was as follows: the pharmaceutical composition was dissolved in 10% DMSO+corn oil, the mice were gavaged with the pharmaceutical composition at 100 pl/mouse, and the mice in the control group were injected with the same volume of the solvent. • 2. MC38 colorectal cancer cells were inoculated into 6-week-old female nude mice (1×10^6 cells/mouse) to establish a subcutaneous tumor model. After the tumor volume reached 50 mm^3, the mice were grouped and administered according to the following pharmaceutical combinations: (1) control group, (2) CBD (100 mg/kg)+vitamin E(α-tocopherol) (50 mg/kg)+thymosin (2 mg/kg) group, (3) PAR (10 mg/kg)+vitamin E(α-tocopherol) (50 mg/kg)+thymosin (2 mg/kg) group, and (4) PAR (10 mg/kg)+CBD (100 mg/kg)+vitamin E(α-tocopherol) (50 mg/kg)+thymosin (2 mg/kg) group. The tumor weight and volume, and the body weight of the mice were monitored once every 2 days. The tumor volume was calculated as follows: tumor volume (mm^3)=0.5×(length)x(width)^2. The mice were sacrificed 14 days after drug administration, and the tumors were dissected. (II) Experimental Results 1.

Another assay deals with MC38 colon cancer cells. In words: MC38 subcutaneous tumor model in C57BL/6 mice, Embodiment 5. The format is in vivo. The following applies: for Tumor volume: CBD 100 mg/kg, PAR 5 mg/kg, vitamin E 50 mg/kg; for therapeutic / tumor inhibition effect in words: normal mice, Embodiment 5, comparison between groups. The protocol:
MC38 colon cancer cells were inoculated into 6-week-old female C57BL/6 mice (1×10^6 cells/mouse) to establish a subcutaneous tumor model. After the tumor volume reached 50 mm^3, the mice were grouped and administered with the following pharmaceutical combinations: (1) control group (no drug administration), (2) anti-PD-1 ([…] per time) group, (3) vitamin E(α-tocopherol) (50 mg/kg) group, (4) CBD (100 mg/kg) group, (5) CBD (100 mg/kg)+vitamin E(α-tocopherol) (50 mg/kg) group, (6) PAR (5 mg/kg) group, (7) PAR (5 mg/kg)+vitamin E(α-tocopherol) (50 mg/kg) group, (8) CBD (100 mg/kg)+PAR (5 mg/kg) group, and (9) PAR (5 mg/kg)+CBD (100 mg/kg)+vitamin E(α-tocopherol) (50 mg/kg) group.
The tumor weight, tumor volume, and mouse body weight were monitored once every 2 days. The tumor volume was calculated as follows: tumor volume (mm^3)=0.5×(length)×(width)^2. The mice were sacrificed 14 days after drug administration, and the tumors were dissected.
The dissolving mode of the pharmaceutical composition was as follows: the pharmaceutical composition was dissolved in 10% DMSO+corn oil, the mice were gavaged with the pharmaceutical composition at 100 μl/mice, and the mice in the control group were injected with the same volume of the solvent.

Another assay relates to PD-L1 in tumor cells. In words: Expression of PD-L1 in tumor cells with paroxetine hydrochloride. Format: cell-based. As to conditions: no method or data given.

As for `Fc1ccc([C@@H]2CCNC[C@H]2COc2ccc3c(c2)OCO3)cc1` [PAR, paroxetine hydrochloride], the Tumor volume in assay [1] (Day 0) is given as 0 mm^3; in assay [1] (Day 2) it was 43.63 mm^3; in assay [1] (Day 4), 68.09 mm^3; in assay [1] (Day 6), 83.54 mm^3; in assay [1] (Day 8), 177.63 mm^3; in assay [1] (Day 10), 263.45 mm^3. Further, the Tumor volume is 393.48 mm^3 in assay [1] (Day 12); 510.89 mm^3 in assay [1] (Day 14); 608.61 mm^3 in assay [1] (Day 16); 0 mm^3 in the assay with MC38 colon cancer cells (Day 0); 44.74 mm^3 in the assay with MC38 colon cancer cells (Day 4); 61.50 mm^3 in the assay with MC38 colon cancer cells (Day 6). Besides, the Tumor volume is on record as 85.83 mm^3 in the assay with MC38 colon cancer cells (Day 8); 136.25 mm^3 in the assay with MC38 colon cancer cells (Day 10); 176.62 mm^3 with MC38 colon cancer cells (Day 12); 262.06 mm^3 with MC38 colon cancer cells (Day 14); 302.90 mm^3 in the assay with MC38 colon cancer cells (Day 16). For the same molecule, the “therapeutic / tumor inhibition effect in words” value in assay [1] (normal mice, Embodiment 2, comparison between groups) is listed as “equivalent therapeutic effects”; in the assay with MC38 colon cancer cells, “equivalent therapeutic effects”. In addition, the “expression of PD-L1 in tumor cells” value with PD-L1 in tumor cells was “reduces the expression of PD-L1”.

With `Cc1c(C)c2c(c(C)c1O)CC[C@@](C)(CCC[C@H](C)CCC[C@H](C)CCCC(C)C)O2` [VE, a-tocopherol], the Tumor volume in the assay with MC38 colon cancer cells (Day 0) was found to be 0 mm^3; in the assay with MC38 colon cancer cells (Day 4), 58.77 mm^3; in the assay on MC38 colon cancer cells (Day 6), 124.89 mm^3; in the assay on MC38 colon cancer cells (Day 8), 191.75 mm^3; in the assay with MC38 colon cancer cells (Day 10), 284.59 mm^3; with MC38 colon cancer cells (Day 12), 459.67 mm^3. For the same molecule, the Tumor volume in the assay on MC38 colon cancer cells (Day 14) is on record as 532.81 mm^3; in the assay with MC38 colon cancer cells (Day 16), 624.47 mm^3. The “therapeutic / tumor inhibition effect in words” value in the assay with MC38 colon cancer cells is “no significant therapeutic effect”.
